Patent US6461593B1, “Therapy with coenzyme Q10 to reduce subgingival microorganisms in patients with periodontal disease” (Biomedical and Clinical Research, priority 1992, dated 2002)
“And” between values parts separate entries of the source, which are not always exact repeats. Equal entries are not always repeated. “Also recorded” adds a separate entry of the source.

Experiments:
[1] = system: T4/T8 lymphocytes; experiment: T4/T8 lymphocyte ratio in peripheral blood by flow cytometry; assay type: in vivo, human
Description: (§1) Twenty-two systemically healthy patients with periodontal disease, 11 males and 11 females, ages 33 to 66, participated in this trial. These volunteers were treated orally with 100 mg of CoQ10 per day for two months. Informed consent forms were signed prior to the study. Periodontal examinations and peripheral blood analyses were made before and during the trial. During the trial, the patients were not provided any routine periodontal treatment, and the staff gave them no information about oral hygiene to the patients.
(§2) About 3 ml of peripheral blood was drawn for determination of CoQ10 levels and the T4/T8 ratios. The determination of the COQ10 level was performed as described by Ye et al. (10). T4(CD4) and T8 (CD8) monoclonal antibodies were purchased from Coulter Immunology, Hialeah, Fla. The lymphocytes were stained according to the two-color fluorescence, and the flow cytometric analysis was performed on an Epics Profile cell sorter (Coulter Electronics Inc., Hileah, Fla.).The sample preparations and staining procedures were performed as described by Parker et al. (11).
(§3) A paired-t test was used for the statistical analysis of differences in the gingival index, the plaque index, the blood CoQ10 levels, and the T4/TS ratios before and after the administration. The Wilcoxson test was used to test scores in microscopic analysis.

[2] = oral administration (ref 14); cited from earlier work
[3] = system: motile rods; experiment: Phase contrast microscopy of subgingival plaque: motile rods; assay type: in vivo, human
Description: as §1
(§4) The gingival index (8) and plaque index (9) were criteria to assess to degrees of gingival inflammation and accumulation of plaque on the teeth, respectively. The periodontal pocket depth was measured in interdental regions of buccal gingiva. The deepest pocket which was measured before administration of CoQ10 was selected for direct examination of oral bacteria by a microscope. The subgingival plaques were obtained with a curette, and were then dispersed in physiological saline which contained 1% gelatin, and were then prepared for analysis by phase contrast microscopy. The biopsies were viewed by means of a DS/300 microscope system (Dental Scientific Systems, Inc., VA) at 400× magnification. […]

[4] = Gingival index in patients with periodontal disease, oral CoQ10 trial; assay type: in vivo, human; set-up: Gingival Index, 2 Months: scale not given here
Description: as §1
(§5) The gingival index (8) and plaque index (9) were criteria to assess to degrees of gingival inflammation and accumulation of plaque on the teeth, respectively. The periodontal pocket depth was measured in interdental regions of buccal gingiva. The deepest pocket which was measured before administration of CoQ10 was selected for direct examination of oral bacteria by a microscope. The subgingival plaques were obtained with a curette, and were then dispersed in physiological saline which contained 1% gelatin, and were then prepared for analysis by phase contrast microscopy. The biopsies were viewed by means of a DS/300 microscope system (Dental Scientific Systems, Inc., VA) at 400× magnification. Small spirochetes, large spirochetes, spinning rods, spiral rods, small gliding rods, large gliding rods and palisading rods were identified as based upon cellular morphology and active motility. The following scores were used in each category: 0, no bacterial cells; 1, 1-9 cells; 2, 10-39 cells; and 3, more than 40 cells.
as §3

[5] = patients with AIDS and the AIDS-related complex; cited from earlier work
[6] = system: tumors induced by dibenzpyrene; details: cited from earlier work
[7] = system: Plasmodium berghei; details: mice infected with Plasmodium berghei; cited from earlier work
[8] = Periodontal pocket depth in patients with periodontal disease, oral CoQ10 trial; assay type: in vivo, human
Description: as §1, §5

[9] = oral administration (ref 5); cited from earlier work
[10] = Blood CoQ10 level; assay type: in vivo, human
Description: as §1, §2, §3

[11] = cited from earlier work
[12] = Plaque index in patients with periodontal disease, oral CoQ10 trial; assay type: in vivo, human; set-up: Plaque Index, 2 Months: scale not given here
Description: as §1, §5, §3

[13] = system: spirochetes; experiment: Phase contrast microscopy of subgingival plaque: spirochetes; assay type: in vivo, human
Description: as §1, §4

[14] = system: subgingival microorganisms; experiment: Phase contrast microscopy of subgingival plaque: total motile microorganisms; assay type: in vivo, human; set-up: key to Total subgingival microorganism score, 2 Months: 0 = no cells, 1 = 1-9, 2 = 10-39, 3 = >40 cells per category
Description: as §1, §4

[15] = 22 patients, 100 mg orally for two months, p<0.001
[16] = individual patients, peripheral blood, 100 mg CoQ10 per day orally
[17] = 22 patients, 100 mg orally for two months, p<0.01
[18] = individual patients, sum of category scores (0 no motile cells, 1 1-9, 2 10-39, 3 more than 40 cells per microscopic field), 100 mg/day orally
[19] = individual patients (one line per ID #), 100 mg CoQ10 per day orally for 2 months

Structure (SMILES): COC1=C(OC)C(=O)C(C/C=C(\C)CC/C=C(\C)CC/C=C(\C)CC/C=C(\C)CC/C=C(\C)CC/C=C(\C)CC/C=C(\C)CC/C=C(\C)CC/C=C(\C)CCC=C(C)C)=C(C)C1=O [CoQ10, coenzyme Q10]
- Change of T4/T8 ratio [1, 15]: significantly increased
- T4/T8 Ratio, 2 months, Mean + S.D. ([1]; 22 patients, before 2.9 + 1.0, p <0.001): 3.4 + 1.3
- T4/T8 Ratio, 2 months [1, 16]: 2.3 and 3.1 and 2.8 (2×) and 4.9 and 3.5 and 4.0 and 1.9 and 2.7 and 7.1 and 3.7 and 2.0 (2×) and 6.2 and 2.9 and 3.2 (2×) and 3.9 and 3.4 and 2.4 and 3.6 and 3.8
- Patients with evident increase of T4/T8 ratio ([1]; out of 22): 17 patients
- Activities of the CoQ10-dependent enzymes in inflamed dog gingiva [2]: increase
- CoQ10 levels in inflamed dog gingiva [2]: increase
- Change of motile rods [3, 17]: decreased; also recorded: significant reduction
- Motile Rods score, 2 Months [3, 18]: 3 (5×) and 0 (7×) and 4 (2×) and 1 (3×) and 2 (3×) and 6 and 5
- Change of gingival index [4, 17]: decreased
- Gingival Index, 2 Months [4, 19]: 0.5 (3×) and 0.7 (3×) and 0.1 (2×) and 0.2 (3×) and 0.3 (3×) and 1.0 (2×) and 1.4 (2×) and 1.1 and 1.3 and 0.4 and 0.8
- Gingival Index, 2 Months, Mean ([4]; mean of 22 patients, S.D. 0.4, before 0.9, p <0.001, 100 mg/day orally): 0.6 +
- Host defense mechanisms [5]: enhanced
- Number of survivors ([6]; dibenzpyrene tumor model, mice): increase
- Percentage of mice with tumors ([6]; mice susceptible to dibenzpyrene-induced tumors): reduction
- Tumor size or number ([6]; mice that developed tumors): reduction
- Effectiveness of chloroquin [7]: potentiated
- Parasitemia in the red blood cells [7]: reduced
- Survival time [7]: prolonged
- Survivors [7]: increased
- Change of pocket depth [8, 15]: decreased
- Pocket Depth, 2 Months [8, 19]: 2.3 mm (3×) and 2.7 mm (2×) and 1.9 mm and 2.4 mm and 2.6 mm (3×) and 2.9 mm (2×) and 2.2 mm and 1.8 mm and 3.6 mm and 3.4 mm and 2.8 mm (2×) and 2.5 mm and 3.0 mm and 4.5 mm and 3.7 mm
- Pocket Depth, 2 Months, Mean ([8]; mean of 22 patients, S.D. 0.6, before 3.0, p <0.001, 100 mg/day orally): 2.8 + mm
- Oxygen utilization in inflamed human gingiva [9]: increase
- Change of blood level of CoQ10 [10, 15]: increased in all of the patients
- CoQ10 level, 2 months, Mean + S.D. ([10]; 22 patients, before 0.82 + 0.19, p <0.001): 1.75 + 0.37 ug/ml
- CoQ10 level, 2 months [10, 16]: 1.60 µg/mL and 1.94 µg/mL and 1.59 µg/mL and 2.29 µg/mL and 2.39 µg/mL and 1.16 µg/mL and 1.99 µg/mL and 1.44 µg/mL and 2.37 µg/mL and 1.72 µg/mL and 2.22 µg/mL and 1.30 µg/mL and 2.10 µg/mL and 1.88 µg/mL and 1.65 µg/mL and 1.75 µg/mL and 1.74 µg/mL and 1.90 µg/mL and 1.55 µg/mL and 1.57 µg/mL and 1.26 µg/mL and 1.17 µg/mL
- Gingival inflammation ([11]; earlier clinical trials (refs 2,3,5)): improvement
- Periodontal pocket depth ([11]; earlier clinical trials (refs 2-5)): improvement
- Tooth mobility ([11]; earlier clinical trials (refs 3-5)): improvement
- Change of plaque index ([12]; 22 patients, 100 mg orally for two months): did not change; also recorded: no change
- Plaque Index, 2 Months [12, 19]: 0.0 (5×) and 0.6 (3×) and 0.3 (2×) and 0.2 (4×) and 0.1 (4×) and 0.4 (3×) and 2.0
- Plaque Index, 2 Months, Mean ([12]; mean of 22 patients, S.D. 0.4, before 0.3, not significant, 100 mg/day orally): 0.3 +
- Change of spirochetes ([13]; 22 patients, 100 mg orally for two months, p<0.02): decreased; also recorded: significant reduction
- Spirochetes score, 2 Months [13, 18]: 3 (8×) and 0 (7×) and 4 and 1 (3×) and 6 (2×) and 2
- Total subgingival microorganism score, 2 Months ([14]; individual patients, motile rods plus spirochetes scores, 100 mg/day orally): 6 (6×) and 3 (4×) and 0 (4×) and 8 (3×) and 1 (2×) and 2 and 5 and 7
- Patients in whom all motile microorganisms in the gingiva disappeared ([14]; of 22 patients, 100 mg orally for two months): 4/22 and four
